Reference: patent US9839642B2, “Beta-tetrazolyl-propionic acids as metallo-beta-lactamase inhibitors” (priority 2014, dated 2017)
Where two headings read alike, the source gives them in different places.

Legend:
IMP-1 = IMP-1 (Serratia marcescens, UniProt P52699); test: Enzyme activity: determination of IC50, fluorescence assay with CCF2-FA substrate; format: biochemical; settings: CCF2-FA 1.25 μM, 2 hours at 25° C.
Procedure, shortened: (§1)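 In pH 7 phosphate buffer (100 mM) with 10 μM ZnSO4 and 0.005% Tween-20, CCF2-FA substrate (1.25 μM final) was hydrolysed for 2 h at 25 °C by NDM-1, IMP-1 or VIM-1 at 1, 2 or 30 pM in the presence of inhibitor at 20–0.00063 μM. Emission 460 nm/excitation 405 nm; 4-parameter curve fit gave IC50.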

NDM-1 = NDM-1 (Klebsiella pneumoniae, UniProt C7C422); test: as above; format: biochemical; settings: CCF2-FA 1.25 μM, 2 hours at 25° C.
Chain of NDM-1 (C7C422 29-270, looked up, species assumed): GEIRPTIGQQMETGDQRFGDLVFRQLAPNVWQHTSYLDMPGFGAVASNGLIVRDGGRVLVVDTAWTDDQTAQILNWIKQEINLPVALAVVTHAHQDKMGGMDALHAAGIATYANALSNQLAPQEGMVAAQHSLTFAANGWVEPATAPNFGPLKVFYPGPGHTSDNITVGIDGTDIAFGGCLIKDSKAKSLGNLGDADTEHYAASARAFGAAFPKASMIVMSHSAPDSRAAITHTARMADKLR
Procedure, shortened: as §1

VIM-1 = VIM-1 (Pseudomonas aeruginosa, UniProt A0A0F7KYQ8); test: as above; format: biochemical; settings: CCF2-FA 1.25 μM, 2 hours at 25° C.
Procedure, shortened: as §1

[1] = tested on: Escherichia coli expressing NDM-1 (CLB30005); test: Antibiotic potentiation activity: synergistic concentration (MITC95) with imipenem, growth by OD600; format: cell-based; settings: 95% inhibition of bacterial growth, strain CLB30005
Procedure, shortened: (§2)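 MITC95 = lowest inhibitor concentration giving 95% growth inhibition, read by absorbance after 22–24 h at 35° C. Compound range 200 μM to 0.195 μM, imipenem fixed at 1 or 4 μg/ml, bacteria in 1.1×CAMHB from saline suspension diluted 1:100.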

[2] = tested on: Klebsiella pneumoniae expressing VIM-1 (IHMA599644); test: as above; format: cell-based; settings: 95% inhibition of bacterial growth, strain IHMA599644
Procedure, shortened: as §2

[3] = tested on: Serratia marcescens expressing IMP-1 (CL5741); test: as above; format: cell-based; settings: 95% inhibition of bacterial growth, strain CL5741
Procedure, shortened: as §2

[4] = enzyme 2 pM, read-out: IMP1 IC50
[5] = enzyme 1 pM, read-out: NDM1 IC50
[6] = enzyme 30 pM, read-out: VIM1 IC50

Chain of IMP-1 (P52699 19-246, looked up, species assumed): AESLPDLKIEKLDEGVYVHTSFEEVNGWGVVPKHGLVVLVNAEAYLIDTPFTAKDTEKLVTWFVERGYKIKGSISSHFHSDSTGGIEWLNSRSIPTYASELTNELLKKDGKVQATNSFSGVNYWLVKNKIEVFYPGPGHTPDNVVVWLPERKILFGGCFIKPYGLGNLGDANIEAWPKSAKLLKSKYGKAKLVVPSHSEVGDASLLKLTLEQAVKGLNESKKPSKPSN

CCC(C)[C@H](C(=O)O)[C@H](Cc1ccccc1)c1nnn[nH]1 (stereo partly drawn) [Example 19, (2S)-3-methyl-2-((S)-2-phenyl-1-(1H-tetrazol-5-yl)ethyl)pentanoic acid]
IC50 (IMP-1; [4]): 0.062 µM
IC50 (NDM-1; [5]): 0.031 µM
IC50 (VIM-1; [6]): 0.024 µM
NDM1 EC30005 MITC95 [1]: 9.4 µM
VIM1 KP599644 MITC95 [2]: 50 µM
IMP1 SM5741 MITC95 [3]: 50 µM

CC(C)[C@H](C(=O)O)[C@H](Cc1ccccc1)c1nnn[nH]1 [Example 20, (2S,3S)-2-isopropyl-4-phenyl-3-(1H-tetrazol-5-yl)butanoic acid]
IC50 (IMP-1; [4]): 0.39 µM
IC50 (NDM-1; [5]): 0.026 µM
IC50 (VIM-1; [6]): 0.022 µM
NDM1 EC30005 MITC95 [1]: 4.7 µM
VIM1 KP599644 MITC95 [2]: 69 µM
IMP1 SM5741 MITC95 [3]: 128 µM

O=C(O)[C@@H](CCF)[C@H](Cc1ccccc1)c1nnn[nH]1 [Example 21, (2S,3S)-2-(2-fluoroethyl)-4-phenyl-3-(1H-tetrazol-5-yl)butanoic acid]
IC50 (IMP-1; [4]): 2.7 µM
IC50 (NDM-1; [5]): 0.19 µM
IC50 (VIM-1; [6]): 0.015 µM
NDM1 EC30005 MITC95 [1]: 75 µM
VIM1 KP599644 MITC95 [2]: >200 µM
IMP1 SM5741 MITC95 [3]: >200 µM

O=C(O)[C@@H](CC(F)F)[C@H](Cc1ccccc1)c1nnn[nH]1 [Example 22, (2S,3S)-2-(2,2-difluoroethyl)-4-phenyl-3-(1H-tetrazol-5-yl)butanoic acid]
IC50 (IMP-1; [4]): 2.6 µM
IC50 (NDM-1; [5]): 0.28 µM
IC50 (VIM-1; [6]): 0.014 µM
NDM1 EC30005 MITC95 [1]: 31 µM
VIM1 KP599644 MITC95 [2]: 50 µM
IMP1 SM5741 MITC95 [3]: 200 µM

CC(C)C[C@H](C(=O)O)[C@@H](c1nnn[nH]1)[C@H](C)c1ccccc1 [Example 27, (2S,3S,4S)-2-isobutyl-4-phenyl-3-(1H-tetrazol-5-yl)pentanoic acid]
IC50 (IMP-1; [4]): 0.062 µM
IC50 (NDM-1; [5]): 0.016 µM
IC50 (VIM-1; [6]): 0.0077 µM
NDM1 EC30005 MITC95 [1]: 15.6 µM
VIM1 KP599644 MITC95 [2]: 37.5 µM
IMP1 SM5741 MITC95 [3]: 13 µM

C[C@@H](c1ccccc1)[C@H](c1nnn[nH]1)[C@H](CCF)C(=O)O [Example 28, (2S,3S,4R)-2-(2-fluoroethyl)-4-phenyl-3-(1H-tetrazol-5-yl)pentanoic acid]
IC50 (IMP-1; [4]): 1.8 µM
IC50 (NDM-1; [5]): 0.31 µM
IC50 (VIM-1; [6]): 0.19 µM
NDM1 EC30005 MITC95 [1]: 200 µM
VIM1 KP599644 MITC95 [2]: >200 µM
IMP1 SM5741 MITC95 [3]: >200 µM

CC[C@H](C(=O)O)[C@@H](c1nnn[nH]1)[C@@H](C)c1ccccc1 [Example 29, (2S,3S,4R)-2-ethyl-4-phenyl-3-(1H-tetrazol-5-yl)pentanoic acid]
IC50 (IMP-1; [4]): 2.3 µM
IC50 (NDM-1; [5]): 0.53 µM
IC50 (VIM-1; [6]): 0.21 µM
NDM1 EC30005 MITC95 [1]: 25 µM
VIM1 KP599644 MITC95 [2]: 200 µM
IMP1 SM5741 MITC95 [3]: >200 µM

CCCC[C@@H](C(=O)O)[C@@H](Cc1ccc(Br)cc1)c1nnn[nH]1 [Example 30, (R)-2-((R)-2-(4-bromophenyl)-1-(1H-tetrazol-5-yl)ethyl)hexanoic acid]
IC50 (IMP-1; IMP1 IC50, enzyme 2 pM): 0.22 µM
IC50 (NDM-1; NDM1 IC50, enzyme 1 pM): 4.7 µM
IC50 (VIM-1; VIM1 IC50, enzyme 30 pM): 0.24 µM
NDM1 EC30005 MITC95 [1]: >200 µM
VIM1 KP599644 MITC95 [2]: >200 µM
IMP1 SM5741 MITC95 [3]: 50 µM

O=C(O)[C@H](CCC1CCCCC1)[C@@H](Cc1ccccc1)c1nnn[nH]1 [Example 31, (2R,3R)-2-(2-cyclohexylethyl)-4-phenyl-3-(1H-tetrazol-5-yl)butanoic acid]
IC50 (IMP-1; [4]): 0.41 µM
IC50 (NDM-1; [5]): 0.74 µM
IC50 (VIM-1; [6]): 0.59 µM
NDM1 EC30005 MITC95 [1]: >200 µM
VIM1 KP599644 MITC95 [2]: >200 µM
IMP1 SM5741 MITC95 [3]: >200 µM

O=C(O)[C@@H](CCCCO)[C@H](Cc1ccccc1)c1nnn[nH]1 [Example 32, (S)-6-hydroxy-2-((S)-2-phenyl-1-(1H-tetrazol-5-yl)ethyl)hexanoic acid]
IC50 (IMP-1; [4]): 5 µM
IC50 (NDM-1; [5]): 0.72 µM
IC50 (VIM-1; [6]): 0.24 µM
NDM1 EC30005 MITC95 [1]: 75 µM
VIM1 KP599644 MITC95 [2]: 200 µM
IMP1 SM5741 MITC95 [3]: >200 µM

N#CCCCC[C@H](C(=O)O)[C@H](Cc1ccccc1)c1nnn[nH]1 [Example 33, (S)-6-cyano-2-((S)-2-phenyl-1-(1H-tetrazol-5-yl)ethyl)hexanoic acid]
IC50 (IMP-1; [4]): 2.1 µM
IC50 (NDM-1; [5]): 0.39 µM
IC50 (VIM-1; [6]): 0.11 µM
NDM1 EC30005 MITC95 [1]: 75 µM
VIM1 KP599644 MITC95 [2]: >200 µM
IMP1 SM5741 MITC95 [3]: 50 µM

O=C(O)CCCC[C@H](C(=O)O)[C@H](Cc1ccccc1)c1nnn[nH]1 [Example 34, (S)-2-((S)-2-phenyl-1-(1H-tetrazol-5-yl)ethyl)heptanedioic acid]
IC50 (IMP-1; [4]): 1.5 µM
IC50 (NDM-1; [5]): 0.2 µM
IC50 (VIM-1; [6]): 0.04 µM
NDM1 EC30005 MITC95 [1]: 25 µM
VIM1 KP599644 MITC95 [2]: 200 µM
IMP1 SM5741 MITC95 [3]: 200 µM

NC(=O)CCCC[C@H](C(=O)O)[C@H](Cc1ccccc1)c1nnn[nH]1 [Example 35, (S)-7-amino-7-oxo-2-((S)-2-phenyl-1-(1H-tetrazol-5-yl)ethyl)heptanoic acid]
IC50 (IMP-1; [4]): 3.1 µM
IC50 (NDM-1; [5]): 1.4 µM
IC50 (VIM-1; [6]): 0.21 µM
NDM1 EC30005 MITC95 [1]: 100 µM
VIM1 KP599644 MITC95 [2]: >200 µM
IMP1 SM5741 MITC95 [3]: >200 µM

O=C(O)[C@@H](CCCC1CCNCC1)[C@H](Cc1ccccc1)c1nnn[nH]1 [Example 36, (S)-2-((S)-2-phenyl-1-(1H-tetrazol-5-yl)ethyl)-5-(piperidin-4-yl)pentanoic acid]
IC50 (IMP-1; [4]): 2 µM
IC50 (NDM-1; [5]): 0.03 µM
IC50 (VIM-1; [6]): 0.021 µM
NDM1 EC30005 MITC95 [1]: 60 µM
VIM1 KP599644 MITC95 [2]: 100 µM
IMP1 SM5741 MITC95 [3]: 108 µM

O=C(O)[C@@H](CCCCc1ccccc1)[C@H](Cc1ccc2c(c1)OCO2)c1nnn[nH]1 [Example 37, (2S)-2-[(1S)-2-(1,3-benzodioxol-5-yl)-1-(2H-tetrazol-5-yl)ethyl]-6-phenylhexanoic acid]
IC50 (IMP-1; [4]): 0.12 µM
IC50 (NDM-1; [5]): 0.027 µM
IC50 (VIM-1; [6]): 0.01 µM
NDM1 EC30005 MITC95 [1]: 200 µM
VIM1 KP599644 MITC95 [2]: >200 µM
IMP1 SM5741 MITC95 [3]: 106 µM

CC(C)CCCCC[C@H](C(=O)O)[C@H](Cc1ccc2c(c1)OCO2)c1nnn[nH]1 [Example 38, (2S)-2-[(1S)-2-(1,3-benzodioxol-5-yl)-1-(2H-tetrazol-5-yl)ethyl]-8-methylnonanoic acid]
IC50 (IMP-1; [4]): 0.049 µM
IC50 (NDM-1; [5]): 0.012 µM
IC50 (VIM-1; [6]): 0.0055 µM
NDM1 EC30005 MITC95 [1]: 100 µM
VIM1 KP599644 MITC95 [2]: >200 µM
IMP1 SM5741 MITC95 [3]: 31 µM

CCCCC[C@H](C(=O)O)[C@H](Cc1ccc2c(c1)OCO2)c1nnn[nH]1 [Example 39, (2S)-2-[(1S)-2-(1,3-benzodioxol-5-yl)-1-(1H-tetrazol-5-yl)ethyl]heptanoic acid]
IC50 (IMP-1; [4]): 0.21 µM
IC50 (NDM-1; [5]): 0.086 µM
IC50 (VIM-1; [6]): 0.011 µM
NDM1 EC30005 MITC95 [1]: 75 µM
VIM1 KP599644 MITC95 [2]: 100 µM
IMP1 SM5741 MITC95 [3]: >200 µM

CCC[C@H](C(=O)O)[C@H](Cc1ccc(C#N)cc1)c1nn[nH]n1 [Example 40, (S)-2-((S)-2-(4-cyanophenyl)-1-(2H-tetrazol-5-yl)ethyl)pentanoic acid]
IC50 (IMP-1; [4]): 2.5 µM
IC50 (NDM-1; [5]): 0.16 µM
IC50 (VIM-1; [6]): 0.0043 µM
NDM1 EC30005 MITC95 [1]: 8.3 µM
VIM1 KP599644 MITC95 [2]: 25 µM
IMP1 SM5741 MITC95 [3]: 100 µM

CCC[C@H](C(=O)O)[C@H](Cc1ccc(C(N)=O)cc1)c1nn[nH]n1 [Example 45, (S)-2-((S)-2-(4-carbamoylphenyl)-1-(2H-tetrazol-5-yl)ethyl)pentanoic acid]
IC50 (IMP-1; [4]): 0.85 µM
IC50 (NDM-1; [5]): 0.093 µM
IC50 (VIM-1; [6]): 0.0033 µM
NDM1 EC30005 MITC95 [1]: 4.2 µM
VIM1 KP599644 MITC95 [2]: 25 µM
IMP1 SM5741 MITC95 [3]: 37.5 µM

CCC[C@H](C(=O)O)[C@H](Cc1ccc(S(C)(=O)=O)cc1)c1nn[nH]n1 [Example 49, (S)-2-((S)-2-(4-(methylsulfonyl)phenyl)-1-(2H-tetrazol-5-yl)ethyl)pentanoic acid]
IC50 (IMP-1; [4]): 0.72 µM
IC50 (NDM-1; [5]): 0.069 µM
IC50 (VIM-1; [6]): 0.0076 µM
NDM1 EC30005 MITC95 [1]: 6.2 µM
VIM1 KP599644 MITC95 [2]: 50 µM
IMP1 SM5741 MITC95 [3]: 37.5 µM

CC[C@H](C)[C@H](C(=O)O)[C@H](Cc1ccc(-c2ccc(-c3nnn[nH]3)cc2)cc1)c1nn[nH]n1 [Example 58, (2S,3S)-2-((S)-2-(4′-(1H-tetrazol-5-yl)-[1,1′-biphenyl]-4-yl)-1-(2H-tetrazol-5-yl)ethyl)-3-methylpentanoic acid]
IC50 (IMP-1; [4]): 0.0014 µM
IC50 (NDM-1; [5]): < 0.00064 µM
IC50 (VIM-1; [6]): 0.0051 µM
NDM1 EC30005 MITC95 [1]: 18.8 µM
VIM1 KP599644 MITC95 [2]: 200 µM
IMP1 SM5741 MITC95 [3]: 12.9 µM

CC(C)[C@H](C(=O)O)[C@H](Cc1ccc(C2=CCNCC2)cc1)c1nnn[nH]1 [Example 59, (2S,3S)-2-isopropyl-4-(4-(1,2,3,6-tetrahydropyridin-4-yl)phenyl)-3-(1H-tetrazol-5-yl)butanoic acid]
IC50 (IMP-1; [4]): 0.055 µM
IC50 (NDM-1; NDM1 IC50, enzyme 1 pM): 0.009 µM
IC50 (VIM-1; [6]): 0.01 µM
NDM1 EC30005 MITC95 [1]: 12.5 µM
VIM1 KP599644 MITC95 [2]: 150 µM
IMP1 SM5741 MITC95 [3]: 56.2 µM
